{"source": "paper PMC11316643", "about": "(European journal of medicinal chemistry, 2024)", "key": {"human KOR": {"target": "human KOR (Homo sapiens, UniProt P41145)", "sequence (P41145 whole entry)": "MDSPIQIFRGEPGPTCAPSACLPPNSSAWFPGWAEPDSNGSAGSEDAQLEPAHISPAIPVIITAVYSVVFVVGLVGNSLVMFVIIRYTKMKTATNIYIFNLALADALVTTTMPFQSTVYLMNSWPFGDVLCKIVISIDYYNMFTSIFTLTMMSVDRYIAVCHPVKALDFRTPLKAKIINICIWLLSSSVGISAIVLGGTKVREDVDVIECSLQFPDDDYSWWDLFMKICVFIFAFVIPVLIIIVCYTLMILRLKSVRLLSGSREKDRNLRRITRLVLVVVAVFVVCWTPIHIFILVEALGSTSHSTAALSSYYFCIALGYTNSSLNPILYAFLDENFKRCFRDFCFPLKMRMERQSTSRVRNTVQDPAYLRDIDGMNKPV", "sequence (P32121 whole entry partner)": "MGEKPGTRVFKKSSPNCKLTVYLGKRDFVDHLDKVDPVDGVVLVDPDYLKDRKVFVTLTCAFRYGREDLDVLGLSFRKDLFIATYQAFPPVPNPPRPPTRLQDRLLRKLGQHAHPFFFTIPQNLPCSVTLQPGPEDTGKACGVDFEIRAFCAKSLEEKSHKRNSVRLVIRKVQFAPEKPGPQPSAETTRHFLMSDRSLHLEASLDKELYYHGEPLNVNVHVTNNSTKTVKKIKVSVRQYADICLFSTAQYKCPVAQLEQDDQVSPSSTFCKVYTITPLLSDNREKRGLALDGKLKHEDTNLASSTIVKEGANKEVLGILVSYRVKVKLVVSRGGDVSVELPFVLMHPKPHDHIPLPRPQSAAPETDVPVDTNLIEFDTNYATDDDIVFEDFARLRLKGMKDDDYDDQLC", "assay": "Bias analysis by operational model"}, "[1]": {"target": "human kappa opioid receptor (KOR) (Homo sapiens, UniProt P41145)", "sequence (P41145 whole entry)": "as the sequence (P41145 whole entry) above", "assay": "35S-GTPγS binding assay of KOR G protein activation in CHO-hKOR membranes", "assay_type": "biochemical"}}, "note": "Where two headings read alike, the source gives them in different places."}
{"smiles": "Cc1ccc(CCc2nnc(-c3ccccn3)n2Cc2cccs2)cc1C(F)(F)F", "note": "[2d, 2-(5-(4-Methyl-3-(trifluoromethyl)phenethyl)-4-(thiophen-2-ylmethyl)-4H-1,2,4-triazol-3-yl)pyridine]", "values": [{"measurement": "bias (bias factor, G protein over βarrestin2)", "setting": "human KOR", "value": 38}]}
{"smiles": "Cc1ccc(CCc2nnc(-c3ccccn3)n2-c2ccccc2)cc1C(F)(F)F", "note": "[2g, 2-(5-(4-Methyl-3-(trifluoromethyl)phenethyl)-4-phenyl-4H-1,2,4-triazol-3-yl)pyridine]", "values": [{"measurement": "KOR agonist activity (GTPγS) in words", "setting": "[1]", "value": "inactive"}]}
{"smiles": "Cc1ccc(CCc2nnc(-c3ccccn3)n2Cc2ccncc2)cc1C(F)(F)F", "note": "[2j, 2-(5-(4-Methyl-3-(trifluoromethyl)phenethyl)-4-(pyridin-4-ylmethyl)-4H-1,2,4-triazol-3-yl)pyridine]", "values": [{"measurement": "KOR agonist activity (GTPγS) in words", "setting": "[1]; SAR discussion", "value": "inactive"}]}
{"smiles": "Cc1ccc(CCc2nnc(-c3ccccn3)n2CC2CC2)cc1C(F)(F)F", "note": "[2k, 2-(4-(Cyclopropylmethyl)-5-(4-methyl-3-(trifluoromethyl)phenethyl)-4H-1,2,4-triazol-3-yl)pyridine]", "values": [{"measurement": "fold decrease in potency on cyclopropane substitution", "setting": "[1]", "value": 10, "unit": "fold"}]}
{"smiles": "Cc1ccc(CCc2nnc(-c3ccccc3)n2Cc2cccs2)cc1C(F)(F)F", "note": "[3a, 3-(4-Methyl-3-(trifluoromethyl)phenethyl)-5-phenyl-4-(thiophen-2-ylmethyl)-4H-1,2,4-triazole]", "values": [{"measurement": "KOR agonist activity (GTPγS) in words", "setting": "[1]", "value": "significant loss of activity"}]}
{"smiles": "Cc1ccc(CCc2nnc(-c3cccnc3)n2Cc2cccs2)cc1C(F)(F)F", "note": "[3b, 3-(5-(4-Methyl-3-(trifluoromethyl)phenethyl)-4-(thiophen-2-ylmethyl)-4H-1,2,4-triazol-3-yl)pyridine]", "values": [{"measurement": "KOR agonist activity (GTPγS) in words", "setting": "[1]", "value": "significant loss of activity"}]}
{"smiles": "Cc1ccc(CCc2nnc(-c3ccncc3)n2Cc2cccs2)cc1C(F)(F)F", "note": "[3c, 4-(5-(4-Methyl-3-(trifluoromethyl)phenethyl)-4-(thiophen-2-ylmethyl)-4H-1,2,4-triazol-3-yl)pyridine]", "values": [{"measurement": "KOR agonist activity (GTPγS) in words", "setting": "[1]; SAR discussion", "value": "significant loss of activity"}]}
{"smiles": "Brc1ccccc1CCc1nnc(-c2ccccn2)n1Cc1cccs1", "note": "[4g, 2-(5-(2-Bromophenethyl)-4-(thiophen-2-ylmethyl)-4H-1,2,4-triazol-3-yl)pyridine]", "values": [{"measurement": "fold decrease in potency of ortho bromo vs para-bromo (4e)", "setting": "[1]", "value": "ca. 10 fold"}]}
{"smiles": "c1ccc(-c2nnc(C3CCc4ccccc4C3)n2Cc2cccs2)nc1", "note": "(centres unmarked) [5a, 2-(5-(1,2,3,4-Tetrahydronaphthalen-2-yl)-4-(thiophen-2-ylmethyl)-4H-1,2,4-triazol-3-yl)pyridine]", "values": [{"measurement": "KOR agonist activity (GTPγS) in words", "setting": "[1]; SAR discussion", "value": "detrimental to activity"}]}
{"smiles": "C(#Cc1nnc(-c2ccccn2)n1Cc1ccco1)c1ccccc1", "note": "[5b, 2-(4-(Furan-2-ylmethyl)-5-(phenylethynyl)-4H-1,2,4-triazol-3-yl)pyridine]", "values": [{"measurement": "KOR agonist activity (GTPγS) in words", "setting": "[1]; SAR discussion", "value": "dramatic loss in potency"}]}
{"smiles": "C(=C/c1nnc(-c2ccccn2)n1Cc1ccco1)/c1ccccc1", "note": "[5c, (Z)-2-(4-(Furan-2-ylmethyl)-5-styryl-4H-1,2,4-triazol-3-yl)pyridine]", "values": [{"measurement": "KOR agonist activity (GTPγS) in words", "setting": "[1]", "value": "dramatic loss in potency"}]}
{"smiles": "Cc1ccc(/C=C/c2nnc(-c3ccccn3)n2Cc2ccco2)cc1C(F)(F)F", "note": "[5d, (E)-2-(4-(Furan-2-ylmethyl)-5-(4-methyl-3-(trifluoromethyl)styryl)-4H-1,2,4-triazol-3-yl)pyridine]", "values": [{"measurement": "KOR agonist activity (GTPγS) in words", "setting": "[1]", "value": "dramatic loss in potency"}]}
{"smiles": "FC(Cc1ccccc1)c1nnc(-c2ccccn2)n1Cc1ccco1", "note": "(centres unmarked) [5g, 2-(5-(1-Fluoro-2-phenylethyl)-4-(furan-2-ylmethyl)-4H-1,2,4-triazol-3-yl)pyridine]", "values": [{"measurement": "fold loss of potency compared to compound 4a", "setting": "[1]", "value": 3, "unit": "fold"}]}
{"smiles": "c1ccc(-c2nnc(-c3ccccn3)n2Cc2cccs2)cc1", "note": "[5j, 2-(5-Phenyl-4-(thiophen-2-ylmethyl)-4H-1,2,4-triazol-3-yl)pyridine]", "values": [{"measurement": "KOR agonist activity (GTPγS) in words", "setting": "[1]", "value": "loss of activity"}]}
